From patent publication US12180248B2, “Compositions and methods for treating CNS disorders” (Sage Therapeutics, Inc., priority 2014, dated 2024) come the findings set out here.

This assay concerns the target rat brain cortical membranes ([35S]-TBPS binding; GABAA receptor). In words: Steroid inhibition of [35S]-TBPS binding (radioligand displacement). The following applies: 3 nM [35S]-TBPS, in the presence of 5 μM GABA, 90 min at room temp. An excerpt: TBPS binding assays using rat brain cortical membranes in the presence of […] GABA has been described (Gee et al, J. Pharmacol. Exp. Ther. 1987, 241, 346-353; Hawkinson et al, Mol. Pharmacol. 1994, 46, 977-985; Lewin, A. H et al., Mol. Pharmacol. 1989, 35, 189-194).
Briefly, cortices are rapidly removed following decapitation of carbon dioxide-anesthetized Sprague-Dawley rats (200-250 g). The cortices are homogenized in 10 volumes of ice-cold 0.32 M sucrose using a glass/teflon homogenizer and centrifuged at 1500×g for 10 min at 4° C. The resultant supernatants are centrifuged at 10,000×g for 20 min at 4° C.; to obtain the P2 pellets. The P2 pellets are resuspended in 200 mM NaCl/50 mM Na—K phosphate pH 7.4 buffer and centrifuged at 10,000×g for 10 min at 4° C. This washing procedure is repeated twice and the pellets are resuspended in 10 volumes of buffer. Aliquots (100 μL) of the membrane suspensions are incubated with 3 nM [^35S]-TBPS and 5 μL aliquots of test drug dissolved in dimethyl sulfoxide (DMSO) (final 0.5%) in the presence of 5 μM GABA. The incubation is brought to a final volume of 1.0 mL with buffer. Nonspecific binding is determined in the presence of 2 μM unlabeled TBPS and ranged from 15 to 25%. Following a 90 min incubation at room temp, the assays are terminated by filtration through glass fiber filters (Schleicher and Schuell No. 32) using a cell harvester (Brandel) and rinsed three times with ice-cold buffer. Filter bound radioactivity is measured by liquid scintillation spectrometry. Non-linear curve fitting of the overall data for each drug averaged for each concentration is done using Prism (GraphPad). […] The concentration of test compound producing 50% inhibition (IC50) of specific binding and the maximal extent of inhibition (Imax) are determined for the individual experiments with the same model used for the overall data and then the means±SEM.s of the individual experiments are calculated.
Various compounds are or can be screened to determine their potential as modulators of [^35S]-TBPS binding in vitro. These assays are or can be performed in accordance with the above discussed procedures.
As to `C[C@@H](C(=O)[C@H]1CC[C@H]2[C@@H]3CC[C@@H]4C[C@](C)(O)CC[C@@H]4[C@H]3CC[C@]12C)n1nccn1` [Compound 2, (S)-1-((3R,5R,8R,9R,10S,13S,14S,17S)-3-hydroxy-3,13-dimethylhexadecahydro-: 1H-cyclopenta[a]phenanthren-17-yl)-2-(2H-1,2,3-triazol-2-yl)propan-1-one], the IC50 (commonly the point on the concentration scale where inhibition reaches its midpoint) was in the range of 50 to 100 nM.
As to `C[C@@H](C(=O)[C@H]1CC[C@H]2[C@@H]3CC[C@@H]4C[C@](C)(O)CC[C@@H]4[C@H]3CC[C@]12C)n1nc2ccccc2n1` [Compound 6, (S)-2-(2H-benzo[d][1,2,3]triazol-2-yl)-1-((3R,5R,8R,9R,10S,13S,14S,17S)-3-hydroxy-3,1:3-dimethylhexadecahydro-1H-cyclopenta[a]phenanthren-17-yl)propan-1-one], the IC50 is less than 50 nM.
In the case of `C[C@@H](C(=O)[C@H]1CC[C@H]2[C@@H]3CC[C@@H]4C[C@](C)(O)CC[C@@H]4[C@H]3CC[C@]12C)n1cc(C#N)cn1` [Compound 3, 1-((S)-1-((3R,5R,8R,9R,10S,13S,14S,17S)-3-hydroxy-3,13-dimethylhexadecahydro-1H-cyclopenta[a]phenanthren-17-yl)-1-oxopropan-2-yl)-1H-pyrazole-4-carbonitrile] it was less than 50 nM.
In the case of `C[C@H](C(=O)[C@H]1CC[C@H]2[C@@H]3CC[C@@H]4C[C@](C)(O)CC[C@@H]4[C@H]3CC[C@]12C)n1nccn1` [Compound 1, (R)-1-((3R,5R,8R,9R,10S,13S,14S,17S)-3-hydroxy-3,13-dimethylhexadecahydro-1H-cyclopenta[a]phenanthren-17-yl)-2-(2H-1,2,3-triazol-2-yl)propan-1-one] it was 250 to 500 nM; in that of `CC(C(=O)[C@H]1CC[C@H]2[C@@H]3CC[C@@H]4C[C@](C)(O)CC[C@@H]4[C@H]3CC[C@]12C)N1CCOCC1` (stereo partly drawn) [Compound 5, 1-((3R,5R,8R,9R,10S,13S,14S,17S)-3-hydroxy-3,13-dimethylhexadecahydro-1H-cyclopenta[a]phenanthren-17-yl)-2-morpholinopropan-1-one], 250 to 500 nM.
As for `C[C@H](C(=O)[C@H]1CC[C@H]2[C@@H]3CC[C@@H]4C[C@](C)(O)CC[C@@H]4[C@H]3CC[C@]12C)n1cc(C#N)cn1` [Compound 4, 1-((R)-1-((3R,5R,8R,9R,10S,13S,14S,17S)-3-hydroxy-3,13-dimethylhexadecahydro-1H-cyclopenta[a]phenanthren-17-yl)-1-oxopropan-2-yl)-1H-pyrazole-4-carbonitrile], the IC50 lay in the range of 50 to 100 nM.
In the case of `C[C@H](C(=O)[C@H]1CC[C@H]2[C@@H]3CC[C@@H]4C[C@](C)(O)CC[C@@H]4[C@H]3CC[C@]12C)n1nc2ccccc2n1` [Compound 7, (R)-2-(2H-benzo[d][1,2,3]triazol-2-yl)-1-((3R,5R,8R,9R,10S,13S,14S,17S)-3-hydroxy-3,13-dimethylhexadecahydro-1H-cyclopenta[a]phenanthren-17-yl)propan-1-one] it was 250 to 500 nM.
